Laboratory results from PubChem BioAssay AID1963980 (Molecular Pharmacology Branch, DTP, NCI, 2024).

Test system: 475296-252-R-J1-PDC spheroid viability
Assay: Anticancer human tumor 475296-252-R-J1-PDC patient-derived rectal carcinoma cell line growth inhibition [PI3K]
Conditions: spheroids with HUVEC and MSC; for IC50: curve of first compound; for viability, T/C: stronger effect = lower value
Method in brief: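 Targeted small molecules plus PI3K inhibitors, half-log dose series from Cmax (default top 10 microM), were applied to heterotypic spheroids of cancer cells with HUVEC and MSCs. Viability indicated growth inhibition.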

[1] = second compound 0.0316 µM, first compound 0.0316 µM
[2] = second compound 0.0316 µM, first compound 0.1 µM
[3] = second compound 0.0316 µM, first compound 0.316 µM
[4] = second compound 0.0316 µM, first compound 1 µM
[5] = second compound 0.0316 µM, first compound 3.16 µM
[6] = second compound 0.0316 µM, first compound 10 µM
[7] = second compound 0.1 µM, first compound 0.0316 µM
[8] = second compound 0.1 µM, first compound 0.1 µM
[9] = second compound 0.1 µM, first compound 0.316 µM
[10] = second compound 0.1 µM, first compound 1 µM
[11] = second compound 0.1 µM, first compound 3.16 µM
[12] = second compound 0.1 µM, first compound 10 µM
[13] = second compound 0.316 µM, first compound 0.0316 µM
[14] = second compound 0.316 µM, first compound 0.1 µM
[15] = second compound 0.316 µM, first compound 0.316 µM
[16] = second compound 0.316 µM, first compound 1 µM
[17] = second compound 0.316 µM, first compound 3.16 µM
[18] = second compound 0.316 µM, first compound 10 µM
[19] = second compound 1 µM, first compound 0.0316 µM
[20] = second compound 1 µM, first compound 0.1 µM
[21] = second compound 1 µM, first compound 0.316 µM
[22] = second compound 1 µM, first compound 1 µM
[23] = second compound 1 µM, first compound 3.16 µM
[24] = second compound 1 µM, first compound 10 µM
[25] = second compound 3.16 µM, first compound 0.0316 µM
[26] = second compound 3.16 µM, first compound 0.1 µM
[27] = second compound 3.16 µM, first compound 0.316 µM
[28] = second compound 3.16 µM, first compound 1 µM
[29] = second compound 3.16 µM, first compound 3.16 µM
[30] = second compound 3.16 µM, first compound 10 µM
[31] = second compound 10 µM, first compound 0.0316 µM
[32] = second compound 10 µM, first compound 0.1 µM
[33] = second compound 10 µM, first compound 0.316 µM
[34] = second compound 10 µM, first compound 1 µM
[35] = second compound 10 µM, first compound 3.16 µM
[36] = second compound 10 µM, first compound 10 µM
[37] = second compound 0.0316 µM, first compound 0.00316 µM
[38] = second compound 0.0316 µM, first compound 0.01 µM
[39] = second compound 0.1 µM, first compound 0.00316 µM
[40] = second compound 0.1 µM, first compound 0.01 µM
[41] = second compound 0.316 µM, first compound 0.00316 µM
[42] = second compound 0.316 µM, first compound 0.01 µM
[43] = second compound 1 µM, first compound 0.00316 µM
[44] = second compound 1 µM, first compound 0.01 µM
[45] = second compound 3.16 µM, first compound 0.00316 µM
[46] = second compound 3.16 µM, first compound 0.01 µM
[47] = second compound 10 µM, first compound 0.00316 µM
[48] = second compound 10 µM, first compound 0.01 µM
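Note: spheroids exposed to agents for seven days before readout.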

CC(C)NCC(C(=O)N1CCN(c2ncnc3c2C(C)CC3O)CC1)c1ccc(Cl)cc1 (stereo not drawn) + CC(Nc1ncnc2nc[nH]c12)c1cc2cccc(Cl)c2c(=O)n1-c1ccccc1
IC50 (second compound 0.0316 µM): > 10 µM | IC50 (second compound 0.1 µM): > 10 µM | IC50 (second compound 0.316 µM): > 10 µM | IC50 (second compound 1 µM): > 10 µM | IC50 (second compound 3.16 µM): > 10 µM | IC50 (second compound 10 µM): > 10 µM | viability, T/C [1]: 89.7% | viability, T/C [2]: 104% | viability, T/C [3]: 80.3% | viability, T/C [4]: 77.3% | viability, T/C [5]: 56.2% | viability, T/C [6]: 65.5% | viability, T/C [7]: 101% | viability, T/C [8]: 93.2% | viability, T/C [9]: 85.2% | viability, T/C [10]: 73.3% | viability, T/C [11]: 68.8% | viability, T/C [12]: 63.2% | viability, T/C [13]: 117% | viability, T/C [14]: 96.4% | viability, T/C [15]: 89.1% | viability, T/C [16]: 76% | viability, T/C [17]: 59.9% | viability, T/C [18]: 66.3% | viability, T/C [19]: 100% | viability, T/C [20]: 103% | viability, T/C [21]: 76% | viability, T/C [22]: 61.8% | viability, T/C [23]: 54.4% | viability, T/C [24]: 65.5% | viability, T/C [25]: 93.1% | viability, T/C [26]: 85.5% | viability, T/C [27]: 82.5% | viability, T/C [28]: 76.1% | viability, T/C [29]: 67.9% | viability, T/C [30]: 50.7% | viability, T/C [31]: 98% | viability, T/C [32]: 84.1% | viability, T/C [33]: 94.7% | viability, T/C [34]: 67.1% | viability, T/C [35]: 59.6% | viability, T/C [36]: 56%

CCN1CCN(Cc2ccc(Nc3ncc(F)c(-c4cc(F)c5nc(C)n(C(C)C)c5c4)n3)nc2)CC1 + CC(Nc1ncnc2nc[nH]c12)c1cc2cccc(Cl)c2c(=O)n1-c1ccccc1
IC50 (second compound 0.0316 µM): > 1 µM | IC50 (second compound 0.1 µM): > 1 µM | IC50 (second compound 0.316 µM): > 1 µM | IC50 (second compound 1 µM): > 1 µM | IC50 (second compound 3.16 µM): > 1 µM | IC50 (second compound 10 µM): > 1 µM | viability, T/C [37]: 87% | viability, T/C [38]: 101% | viability, T/C [1]: 99.6% | viability, T/C [2]: 86.1% | viability, T/C [3]: 104% | viability, T/C [4]: 92% | viability, T/C [39]: 87.8% | viability, T/C [40]: 90.9% | viability, T/C [7]: 103% | viability, T/C [8]: 102% | viability, T/C [9]: 105% | viability, T/C [10]: 89.1% | viability, T/C [41]: 95.1% | viability, T/C [42]: 102% | viability, T/C [13]: 98.3% | viability, T/C [14]: 101% | viability, T/C [15]: 89.4% | viability, T/C [16]: 81.2% | viability, T/C [43]: 102% | viability, T/C [44]: 92.3% | viability, T/C [19]: 93.8% | viability, T/C [20]: 98.5% | viability, T/C [21]: 94.6% | viability, T/C [22]: 75.1% | viability, T/C [45]: 87.2% | viability, T/C [46]: 99.3% | viability, T/C [25]: 85.1% | viability, T/C [26]: 102% | viability, T/C [27]: 92.1% | viability, T/C [28]: 79.5% | viability, T/C [47]: 95.5% | viability, T/C [48]: 82.4% | viability, T/C [31]: 87.4% | viability, T/C [32]: 101% | viability, T/C [33]: 96.9% | viability, T/C [34]: 70.5%

C[C@@H](NC(=O)c1ncnc(N)c1Cl)c1ncc(C(=O)Nc2cc(C(F)(F)F)c(Cl)cn2)s1 + CC(Nc1ncnc2nc[nH]c12)c1cc2cccc(Cl)c2c(=O)n1-c1ccccc1
IC50 (second compound 0.0316 µM): > 10 µM | IC50 (second compound 0.1 µM): > 10 µM | IC50 (second compound 0.316 µM): > 10 µM | IC50 (second compound 1 µM): > 10 µM | IC50 (second compound 3.16 µM): > 10 µM | IC50 (second compound 10 µM): > 10 µM | viability, T/C [1]: 77.6% | viability, T/C [2]: 90.2% | viability, T/C [3]: 109% | viability, T/C [4]: 114% | viability, T/C [5]: 102% | viability, T/C [6]: 91.5% | viability, T/C [7]: 91% | viability, T/C [8]: 92.5% | viability, T/C [9]: 96.7% | viability, T/C [10]: 109% | viability, T/C [11]: 115% | viability, T/C [12]: 92% | viability, T/C [13]: 89.7% | viability, T/C [14]: 86.4% | viability, T/C [15]: 88.2% | viability, T/C [16]: 96.7% | viability, T/C [17]: 108% | viability, T/C [18]: 92.2% | viability, T/C [19]: 94.4% | viability, T/C [20]: 90.5% | viability, T/C [21]: 91% | viability, T/C [22]: 112% | viability, T/C [23]: 106% | viability, T/C [24]: 75.5% | viability, T/C [25]: 89.3% | viability, T/C [26]: 94.8% | viability, T/C [27]: 82% | viability, T/C [28]: 102% | viability, T/C [29]: 110% | viability, T/C [30]: 67.4% | viability, T/C [31]: 87.7% | viability, T/C [32]: 84.8% | viability, T/C [33]: 93.5% | viability, T/C [34]: 92.8% | viability, T/C [35]: 87.1% | viability, T/C [36]: 63.4%

Cn1ncnc1[C@H]1c2n[nH]c(=O)c3cc(F)cc(c23)N[C@@H]1c1ccc(F)cc1 + CC(Nc1ncnc2nc[nH]c12)c1cc2cccc(Cl)c2c(=O)n1-c1ccccc1
IC50 (second compound 0.0316 µM): > 0.1 µM | IC50 (second compound 0.1 µM): > 0.1 µM | IC50 (second compound 0.316 µM): > 0.1 µM | IC50 (second compound 1 µM): > 0.1 µM | IC50 (second compound 3.16 µM): > 0.1 µM | IC50 (second compound 10 µM): > 0.1 µM | viability, T/C (second compound 0.0316 µM, first compound 0.000316 µM): 94.1% | viability, T/C (second compound 0.0316 µM, first compound 0.001 µM): 94.3% | viability, T/C [37]: 87.4% | viability, T/C [38]: 90.7% | viability, T/C [1]: 107% | viability, T/C [2]: 96.8% | viability, T/C (second compound 0.1 µM, first compound 0.000316 µM): 96.5% | viability, T/C (second compound 0.1 µM, first compound 0.001 µM): 87.5% | viability, T/C [39]: 96.8% | viability, T/C [40]: 91.6% | viability, T/C [7]: 95.7% | viability, T/C [8]: 88.9% | viability, T/C (second compound 0.316 µM, first compound 0.000316 µM): 91% | viability, T/C (second compound 0.316 µM, first compound 0.001 µM): 85.8% | viability, T/C [41]: 98.9% | viability, T/C [42]: 99.5% | viability, T/C [13]: 102% | viability, T/C [14]: 106% | viability, T/C (second compound 1 µM, first compound 0.000316 µM): 85.8% | viability, T/C (second compound 1 µM, first compound 0.001 µM): 103% | viability, T/C [43]: 104% | viability, T/C [44]: 103% | viability, T/C [19]: 112% | viability, T/C [20]: 92.7% | viability, T/C (second compound 3.16 µM, first compound 0.000316 µM): 89.7% | viability, T/C (second compound 3.16 µM, first compound 0.001 µM): 86% | viability, T/C [45]: 91% | viability, T/C [46]: 80.7% | viability, T/C [25]: 90.1% | viability, T/C [26]: 89.8% | viability, T/C (second compound 10 µM, first compound 0.000316 µM): 97% | viability, T/C (second compound 10 µM, first compound 0.001 µM): 85% | viability, T/C [47]: 85.4% | viability, T/C [48]: 90.7% | viability, T/C [31]: 95.2% | viability, T/C [32]: 83.7%
